We go through one compound from US8575170B2, “Flurbiprofen analogs and methods of use in treating cancer” (The Regents of the Unversity of Colorado, a body corporate, priority 2010, dated 2013).

Read-outs that look alike come from different tables or passages of the source. Bounds are passed on as bounds.

Holding throughout (type): cell-based
Experiment [1] concerns MiaPaCa. Kind of experiment: MTT cell viability, MiaPaCa. To be noted: Homo sapiens, MIA PaCa-2, 96 h; Pancreatic cancer cells MiaPaCa; 4 days incubation. From the text:
(§1) The ability of the flurbiprofen analog compounds of the invention to inhibit cancer cell growth and survival (viability) in a variety of cancer lines was examined in a standard MTT assay for cell viability, as detailed in Example 2.
(§2) Similar results were obtained for the effect of the B1031 compound on the 14 pancreatic tumor cells lines shown in Table 3 below, where the dose dependent effect of the compound on survival of the pancreatic cancer cell lines is shown in FIG. 5.
(§3) The studies reported in Tables 1-3 above were carried out by incubating the cells in the test compound for four days, under standard cell-culture conditions, and measuring cell survival on day 5 (see Example 2).
(§4) Cell growth and survival following treatment with N—[(S)-2-Fluoro-α-methyl-4-biphenylacetyl]-[L-(4-phenylphenyl)alanine]-N-(2,2,6,6-tetramethyl-4-piperidinyl)amide (GCBH-110=B1031; (S)-Fmba-L-Bip-Atmp) were measured by a rapid colorimetric assay based on the tetrazolium salt MTT (3-(4,5-dimethylthiazol-2-yl)-2,5-diphenyl tetrazolium bromide) (Mosmann, J. Immunol. Methods 65: 55-63, 1983, with minor modifications).
(§5) Briefly, approximately 1,000-5,000 cancer cells from 15 different cancer cells lines were plated in 100 μL of growth medium in 96-well flat-bottomed microtiter plates. Cells were incubated overnight to allow recovery. […] Absorbance was immediately determined using a scanning multiwell plate reader.

In experiment [2] the test system is WM239a. Put plainly: MTT cell viability, WM239a. To be noted: Melanoma cell line WM239a.
Source text: as §1
The results for the several cell lines above were also consistent with IC50 values measured for two melanoma cell lines shown in Table 4 below.
as §4
(§6) Briefly, approximately 1,000-5,000 cancer cells from 15 different cancer cells lines were plated in 100 μL of growth medium in 96-well flat-bottomed microtiter plates. Cells were incubated overnight to allow recovery. Compounds to be tested were added to the cells in triplicate in a range of concentrations and the cells were incubated at 37° C., 5% CO2, with 100% humidity. Control cells were treated in the same way without antagonists. […] Absorbance was immediately determined using a scanning multiwell plate reader.

In experiment [3] the test system is H3255. Kind of experiment: MTT cell viability, H3255. The settings on record: Adenocarcinoma lung cell line H3255, 4 days incubation. The protocol:
as §1, §3, §4, §6

Experiment [4] concerns UMSCC19. Put plainly: MTT cell viability, UMSCC19. The settings on record: Head and neck cancer cell line UMSCC19. As for the experimental part: as §1
(§7) A similar study was conducted on 14 […] cancer cell lines, identified in Table 2.
as §4
(§8) Briefly, approximately 1,000-5,000 cancer cells from 15 different cancer cells lines were plated in 100 μL of growth medium in 96-well flat-bottomed microtiter plates. Cells were incubated overnight to allow recovery. Compounds to be tested were added to the cells in triplicate in a range of concentrations and the cells were incubated at 37° C., 5% CO2, with 100% humidity. Control cells were treated in the same way without antagonists. […] Plates were incubated for 4 days, allowing sufficient time for cell replication and compound-induced cell death to occur. […] Absorbance was immediately determined using a scanning multiwell plate reader. […]

Experiment [5] concerns lung cancer cell lines. Kind of experiment: MTT cell viability, panel of lung cancer cell lines.
Source text: as §1
In one group of studies, the effect of compound B1031 (compound GCBH-110 above) on a variety of lung cancer cells lines identified in Tables 1A-1C was investigated FIGS. 1 and 2 are dose-response curves, showing the change in percent survival as a function of compound concentration, after four days incubation in the presence of the compound for the various cell lines tested (identified in Tables 1A-1C below). […] The 12 cell lines shown in Table 1A are all adenocarcinoma lines, a type of non-small cell lung carcinoma; the 11 cell lines shown in Table 1B, identified as adenosquamous, large cell, mesothelioma, squamous, and squaous mesothelioma, are non-small cell lung carcinoma lines; and the 7 cell lines shown in Table 1C are all small-cell lung carcinoma cell lines.
as §4
Briefly, approximately 1,000-5,000 cancer cells from 15 different cancer cells lines were plated in 100 μL of growth medium in 96-well flat-bottomed microtiter plates. Cells were incubated overnight to allow recovery. Compounds to be tested were added to the cells in triplicate in a range of concentrations and the cells were incubated at 37° C., 5% CO2, with 100% humidity. Control cells were treated in the same way without antagonists. […] Plates were incubated for 4 days, allowing sufficient time for cell replication and compound-induced cell death to occur. On day 5, 25 μL of a 2 mg/mL solution of MTT (Sigma) dissolved in RMPI-1640 was added to each well. The plate was incubated for 4 h at 37° C. The supernatant liquid was removed and the blue formazan complex was dissolved by adding 100 μL of 0.02 N HCl in 75% isopropanol to all wells. Absorbance was immediately determined using a scanning multiwell plate reader.
Similarly, cell growth and survival following treatment with GCBH-110=B1031 was tested using the same MTT assay in 17 lung cancer cell lines. GCBH-110=B1031 caused 50% cell death at concentrations between about 0.1 μM and about 2 μM under these conditions (FIG. 2).

The subject of experiment [6] is H460b. Put plainly: MTT cell viability, H460b. To be noted: 96 h; Large Cell lung cell line H460b; 4 days incubation. The protocol:
as §1, §3, §4, §6

Experiment [7] concerns S84. Put plainly: MTT cell viability, S84. The settings on record: Head and neck cancer cell line S84. The protocol: as §1, §7, §4, §8
Experiment [8] deals with HN31. Put plainly: MTT cell viability, HN31. The settings on record: Head and neck cancer cell line HN31. The protocol: as §1, §7, §4, §8
The test system of experiment [9] is H1703. Kind of experiment: MTT cell viability, H1703. To be noted: Homo sapiens, NCI-H1703, 96 h; Adenosquamous lung cell line H1703; 4 days incubation. The protocol: as §1, §3, §4, §6
The test system of experiment [10] is Capan-2. Put plainly: MTT cell viability, Capan-2. To be noted: Homo sapiens, 96 h; Pancreatic cancer cells Capan-2; 4 days incubation.
Source text: as §1, §2, §3, §4, §5

The test system of experiment [11] is CaLu6. Kind of experiment: MTT cell viability, CaLu6. The settings on record: Homo sapiens, Calu-6, 96 h; Adenocarcinoma lung cell line CaLu6; 4 days incubation. The protocol: as §1, §3, §4, §6

Regarding `C[C@H](C(=O)N[C@@H](Cc1ccc(-c2ccccc2)cc1)C(=O)NC1CC(C)(C)NC(C)(C)C1)c1ccc(-c2ccccc2)c(F)c1` [GCBH-110, N—[(S)-2-Fluoro-α-methyl-4-biphenylacetyl]-[L-(4-phenylphenyl)alanine]-N-(2,2,6,6-tetramethyl-4-piperidinyl)amide], the IC50 in [1] was 740 nM; in [2] it was 230 nM; in experiment [3] (listed as B1031), 900 nM; in experiment [3] (Homo sapiens, NCI-H3255, 96 h), 910 nM; in experiment [4] it was 2000 nM; in experiment [5] (17 lung cancer cell lines, FIG. 2, read-out: concentrations causing 50% cell death), 100 to 2000 nM. Moreover, the IC50 was 100 to 2000 nM in experiment [5] (96 h, FIGS. 1 and 2, four days incubation, read-out: compound concentrations effective to produce 50% cell death); below 500 nM in experiment [5] (most of the lung cancer cell lines of Tables 1A-1C, read-out: IC50 value, most cell lines); 100 to 1800 nM in experiment [5] (span over the 32 lung cancer cell lines of Tables 1A-1C, read-out: IC50 values); 400 nM in experiment [6]; 230 nM in experiment [7]; 540 nM in experiment [8]. Also, the results for the IC50 in [9], in [10] and in experiment [11] were 360 nM, 1500 nM and 340 nM, respectively. Besides, the “IC50 fold lower than flurbiprofen (anti-cancer activity relative to flurbiprofen)” value in experiment [5] (variety of lung carcinoma cells, FIG. 9) is “about 1000 fold”.
